{"source": "ChEMBL document CHEMBL1150656", "about": "“Constituents of the stigmas of Crocus sativus and their tyrosinase inhibitory activity” (J Nat Prod, 2002)", "data": [{"target": "T1, Tyrosinase (Agaricus bisporus, UniProt O42713)", "T1 sequence (O42713 whole entry)": "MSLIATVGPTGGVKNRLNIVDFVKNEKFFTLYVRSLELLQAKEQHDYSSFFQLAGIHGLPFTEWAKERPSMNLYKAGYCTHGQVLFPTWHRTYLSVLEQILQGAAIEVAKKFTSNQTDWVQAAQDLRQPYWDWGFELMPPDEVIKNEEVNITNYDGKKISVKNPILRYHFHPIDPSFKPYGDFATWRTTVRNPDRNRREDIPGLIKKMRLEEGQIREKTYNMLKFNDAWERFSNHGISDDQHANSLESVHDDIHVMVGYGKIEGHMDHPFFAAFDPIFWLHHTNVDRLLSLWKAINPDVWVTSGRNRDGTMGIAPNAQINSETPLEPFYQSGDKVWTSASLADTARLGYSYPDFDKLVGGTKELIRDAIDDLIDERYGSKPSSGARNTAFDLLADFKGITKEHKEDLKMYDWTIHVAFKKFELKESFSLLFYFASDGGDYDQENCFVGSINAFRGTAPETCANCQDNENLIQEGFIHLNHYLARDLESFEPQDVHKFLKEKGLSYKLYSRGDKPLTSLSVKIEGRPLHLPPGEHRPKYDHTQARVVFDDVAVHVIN", "units": {"IC50": "µM"}, "description": "Inhibition of mushroom tyrosinase", "values": [{"smiles": "Oc1ccc(O)cc1", "note": "[HYDROQUINONE]", "IC50": 4500}, {"smiles": "CC1=C([C@@H](O)CC(=O)O)C(C)(C)C[C@@H](O)C1", "note": "[CROCUSATIN H]", "IC50": 870}, {"smiles": "CC(/C=C/C=C(\\C)C(=O)O[C@@H]1O[C@H](CO[C@@H]2O[C@H](CO)[C@@H](O)[C@H](O)[C@H]2O)[C@@H](O)[C@H](O)[C@H]1O)=C\\C=C\\C=C(C)\\C=C\\C=C(/C)C(=O)O[C@@H]1O[C@H](CO[C@@H]2O[C@H](CO)[C@@H](O)[C@H](O)[C@H]2O)[C@@H](O)[C@H](O)[C@H]1O", "note": "[CROCIN]", "IC50": 140}, {"smiles": "CC(/C=C/C=C(\\C)C(=O)O)=C\\C=C\\C=C(C)\\C=C\\C=C(/C)C(=O)O[C@@H]1O[C@H](CO[C@@H]2O[C@H](CO)[C@@H](O)[C@H](O)[C@H]2O)[C@@H](O)[C@H](O)[C@H]1O", "note": "[CROCIN 3]", "IC50": 960}]}]}
